The test system of data set [1] is SARS-CoV-2 USA_WA1/2020 strain. Description: Activity against SARS-CoV-2 in Vero E6 cells (cytopathic effect, visual and neutral red). The data set is classed as cell-based. Particulars: read-out: EC50 (mM/mL) USA_WA1/2020 strain.
A short description of data set [2]: in vitro. As to conditions: African green monkey.
The target in the next data set is SARS-CoV-2 nsp14 (Severe acute respiratory syndrome coronavirus 2, UniProt P0DTD1). As to conditions: cited from earlier work.
Data set [3] relates to SARS-CoV-2 USA_WA1/2020 strain. Description: microbe, parasite or virus in culture. The data set is classed as cell-based.
The nature of data set [4]: in vitro. As to conditions: African green monkey. The source holds these as a separate data set.
Where [5] appears, read: Severe acute respiratory syndrome coronavirus 2, Vero C1008, Neutral red (Cytopathic effect/Toxicity).
[6] abbreviates: Severe acute respiratory syndrome coronavirus 2, Vero C1008, Visual (Cytopathic effect/Toxicity).
Setting [7] is: CC50 (mM/mL) Vero E6, Neutral red (Cytopathic effect/Toxicity).
Where [8] appears, read: CC50 (mM/mL) Vero E6, Visual (Cytopathic effect/Toxicity).
Setting [9] is: Severe acute respiratory syndrome coronavirus 2, Vero 76, Neutral red (Cytopathic effect/Toxicity), Vero 76 cells, read-out: EC50 (mg/mL) USA_WA1/2020 strain.
The mark [10] stands for this setting: Severe acute respiratory syndrome coronavirus 2, Vero 76, Visual (Cytopathic effect/Toxicity), Vero 76 cells, read-out: EC50 (mg/mL) USA_WA1/2020 strain.
Where [11] appears, read: CC50 (mg/mL) Vero 76, Neutral red (Cytopathic effect/Toxicity).
Where [12] appears, read: CC50 (mg/mL) Vero 76, Visual (Cytopathic effect/Toxicity).

These results are taken from patent publication US20250066365A1, “Ribonucleoside Analogues Against -Sars-Cov-2” (priority 2021, published 2025).

Structures are written as SMILES. ≈ marks a conversion by molar mass, not a printed value.

For `Nc1ncnn2c([C@@H]3O[C@H](CO)[C@@H](O)[C@H]3O)cc(/C=C/C3CCCCC3)c12` [Compound 4.2l, 7-((E)-2-Cyclohexylvinyl)-4-aza-7,9-dideazaadenosine], the EC50 in data set [1] (setting [5]) and in data set [1] (setting [6]) was > 0.1 mM each time. The CC50 in “in vitro [2]” (setting [7]) and in “in vitro [2]” (setting [8]) was > 0.1 mM throughout.

As to `Nc1ncnn2c([C@@H]3O[C@H](CO)[C@@H](O)[C@H]3O)cc(/C=C/c3ccc(Cl)cc3)c12` [Compound 4.2f, 7-((E)-4-Chlorostyryl)-4-aza-7,9-dideazaadenosine], the EC50 in data set [1] (setting [5]) and in data set [1] (setting [6]) was > 0.032 mM throughout. Moreover, the CC50 in “in vitro [2]” (setting [7]) and in the data set “in vitro [2]” (setting [8]) was 0.032 mM throughout.

Take `Nc1ncnn2c([C@@H]3O[C@H](CO)[C@@H](O)[C@H]3O)cc(/C=C/c3ccsc3)c12` [Compound 4.2k, 7-((E)-2-(Thiophen-3-yl)vinyl)-4-aza-7,9-dideazaadenosine]: the results for the EC50 in data set [1] (setting [5]) and in data set [1] (setting [6]) were > 0.0031 mM and > 0.0032 mM, respectively. The CC50 in “in vitro [2]” (setting [7]) was 0.0031 mM; in the data set “in vitro [2]” (setting [8]), 0.0032 mM.

For `Nc1ncnc2c1ncn2[C@@H]1O[C@H](CSCCNC(=O)NCCc2ccccc2)[C@@H](O)[C@H]1O` [DS0464], the “concentration range of nsp14 inhibition (in words)” value at SARS-CoV-2 nsp14 is reported as “low-micromolar”.

Consider `Nc1ncnn2c([C@@H]3O[C@H](CO)[C@@H](O)[C@H]3O)cc(/C=C/C3CC3)c12` [Compound 4.2h, 7-((E)-2-Cyclopropylvinyl)-4-aza-7,9-dideazaadenosine], for which the EC50 in data set [1] (setting [5]) and in data set [1] (setting [6]) was > 0.1 mM throughout. For the same compound, the CC50 in the data set “in vitro [2]” (setting [7]) and in the data set “in vitro [2]” (setting [8]) was > 0.1 mM throughout.

`Nc1ncnn2c([C@@H]3O[C@H](CO)[C@@H](O)[C@H]3O)cc(/C=C/c3ccc(C(F)(F)F)cc3)c12` [Compound 4.2e, 7-((E)-4-(Trifluoromethyl)styryl)-4-aza-7,9-dideazaadenosine]: the EC50 in data set [3] (setting [9]) and in data set [3] (setting [10]) was > 0.032 mg/mL each time. Also, the “activity against SARS-CoV-2 (in words)” value in data set [3] (Vero 76 cells) is “inactive”. In addition, the CC50 in “in vitro [4]” (setting [11]) and in the data set “in vitro [4]” (setting [12]) was 32 µg/mL (≈ 73.3 µM) throughout.

As to `N#Cc1cn([C@@H]2O[C@H](CSCC[C@H](N)C(=O)O)C(O)[C@@H]2O)c2ncnc(N)c12` (stereo partly drawn) [SS148], on SARS-CoV-2 nsp14, the “concentration range of nsp14 inhibition (in words)” value was “submicromolar to nanomolar”.

As for `Nc1ncnn2c([C@@H]3O[C@H](CO)[C@@H](O)[C@H]3O)cc(/C=C/c3cccs3)c12` [Compound 4.2j, 7-((E)-2-(Thiophen-2-yl)vinyl)-4-aza-7,9-dideazaadenosine], the EC50 was > 0.032 mM in data set [1] (setting [5]) and > 0.028 mM in data set [1] (setting [6]). In addition, the values for the CC50 in the data set “in vitro [2]” (setting [7]) and in “in vitro [2]” (setting [8]) were 0.032 mM and 0.028 mM, respectively.

In the case of `C=Cc1cc([C@@H]2O[C@H](CO)[C@@H](O)[C@H]2O)n2ncnc(N)c12` [Compound 4.2a, 7-Vinyl-4-aza-7,9-dideazaadenosine], the EC50 in data set [3] (setting [9]) was 0.00016 mg/mL (≈ 0.547 µM); in data set [3] (Severe acute respiratory syndrome coronavirus 2, Vero 76, Vero 76 cells, read-out: EC50 against SARS-CoV-2), 0.00016 mg/mL (≈ 0.547 µM); in data set [3] (setting [10]), < 0.0001 mg/mL. In addition, the “activity against SARS-CoV-2 (in words)” value in data set [3] (Vero 76 cells) was “active”. Moreover, in the data set with Vero 76 cells, the “cytotoxicity (in words)” value is listed as “significant cytotoxicity”. The CC50 in “in vitro [4]” (setting [11]) is 4.7 µg/mL (≈ 16.1 µM); in “in vitro [4]” (setting [12]), 3.2 µg/mL (≈ 10.9 µM).

`Nc1ncnn2c([C@@H]3O[C@H](CO)[C@@H](O)[C@H]3O)cc(/C=C/c3ccc(F)cc3)c12` [Compound 4.2d, 7-((E)-4-Fluorostyryl)-4-aza-7,9-dideazaadenosine]: the EC50 in data set [3] (setting [9]) is > 0.0058 mg/mL; in data set [3] (setting [10]) it was > 0.0032 mg/mL. In addition, the figures for the CC50 in the data set “in vitro [4]” (setting [11]) and in “in vitro [4]” (setting [12]) were 5.8 µg/mL (≈ 15 µM) and 3.2 µg/mL (≈ 8.28 µM), respectively.

Consider `Nc1ncnn2c([C@@H]3O[C@H](CO)[C@@H](O)[C@H]3O)cc(/C=C/c3ccccn3)c12` [Compound 4.2b, 7-((E)-2-(Pyridin-2-yl)vinyl)-4-aza-7,9-dideazaadenosine], for which the EC50 in data set [3] (setting [9]) was < 0.0001 mg/mL; in data set [3] (setting [10]), > 0.00032 mg/mL. In the data set on Vero 76 cells, the “cytotoxicity (in words)” value was “potent cytotoxicity”. Also, the CC50 in the data set “in vitro [4]” (setting [11]) and in “in vitro [4]” (setting [12]) was 0.32 µg/mL (≈ 0.866 µM) in each case.

In the case of `Cc1ccc(/C=C/c2cc([C@@H]3O[C@H](CO)[C@@H](O)[C@H]3O)n3ncnc(N)c23)cc1` [Compound 4.2c, 7-((E)-4-Methylstyryl)-4-aza-7,9-dideazaadnosine], the “EC50 against SARS-CoV-2” value in data set [3] turned out to be 0.3 µg/mL (≈ 0.784 µM). Further, in data set [3] (Vero 76 cells), the “activity against SARS-CoV-2 (in words)” value is on record as “potent antiviral activity”.

In the case of `CCC/C=C/c1cc([C@@H]2O[C@H](CO)[C@@H](O)[C@H]2O)n2ncnc(N)c12` [Compound 4.2m, 7-((E)-pent-1-en-1-yl)-4-aza-7,9-dideazaadenosine], the EC50 in data set [1] (setting [5]) and in data set [1] (setting [6]) was > 0.1 mM each time. Further, the CC50 in “in vitro [2]” (setting [7]) and in the data set “in vitro [2]” (setting [8]) was > 0.1 mM in each case.

As to `Nc1ncnn2c([C@@H]3O[C@H](CO)[C@@H](O)[C@H]3O)cc(/C=C/c3cccc(F)c3)c12` [Compound 4.2g, 7-((E)-3-Fluorostyryl)-4-aza-7,9-dideazaadenosine], the EC50 in data set [1] (setting [5]) and in data set [1] (setting [6]) was > 0.032 mM throughout. The CC50 in “in vitro [2]” (setting [7]) and in the data set “in vitro [2]” (setting [8]) was 0.032 mM throughout.

In the case of `Nc1ncnn2c([C@@H]3O[C@H](CO)[C@@H](O)[C@H]3O)cc(/C=C/C3CCCC3)c12` [Compound 4.2i, 7-((E)-2-Cyclopentylvinyl)-4-aza-7,9-dideazaadenosine], the EC50 in data set [1] (setting [5]) and in data set [1] (setting [6]) was > 0.1 mM each time. Further, the CC50 in the data set “in vitro [2]” (setting [7]) and in the data set “in vitro [2]” (setting [8]) was > 0.1 mM in each case.
